From patent US20230374015A1, “INHIBITORS OF FIBROBLAST GROWTH FACTOR RECEPTOR KINASES” (Kinnate Biopharma Inc., priority 2020, published 2023)

Molecular target: FGFR2 (Homo sapiens, UniProt P21802)
Test: FGFR2 Kinase Protocol - Condition 2 (Reaction Biology HotSpot radiometric kinase assay, no preincubation)
Format: biochemical
Settings: poly[Glu:Tyr] (4:1) 0.2 mg/ml, ATP 100 microM, 2 hr room temperature
Method in brief: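 Radiometric HotSpot format: FGFR2 (wildtype or V564F) with poly[Glu:Tyr] (4:1) at 0.2 mg/ml in HEPES pH 7.5 buffer with 1% DMSO; ATP plus [γ33P]ATP at 100 µM total, added without preincubation. Reactions ran 2 hr at room temperature, then filter-bound. IC50 from 10-dose, 3-fold series versus DMSO control.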

Chain of FGFR2 (P21802 22-821): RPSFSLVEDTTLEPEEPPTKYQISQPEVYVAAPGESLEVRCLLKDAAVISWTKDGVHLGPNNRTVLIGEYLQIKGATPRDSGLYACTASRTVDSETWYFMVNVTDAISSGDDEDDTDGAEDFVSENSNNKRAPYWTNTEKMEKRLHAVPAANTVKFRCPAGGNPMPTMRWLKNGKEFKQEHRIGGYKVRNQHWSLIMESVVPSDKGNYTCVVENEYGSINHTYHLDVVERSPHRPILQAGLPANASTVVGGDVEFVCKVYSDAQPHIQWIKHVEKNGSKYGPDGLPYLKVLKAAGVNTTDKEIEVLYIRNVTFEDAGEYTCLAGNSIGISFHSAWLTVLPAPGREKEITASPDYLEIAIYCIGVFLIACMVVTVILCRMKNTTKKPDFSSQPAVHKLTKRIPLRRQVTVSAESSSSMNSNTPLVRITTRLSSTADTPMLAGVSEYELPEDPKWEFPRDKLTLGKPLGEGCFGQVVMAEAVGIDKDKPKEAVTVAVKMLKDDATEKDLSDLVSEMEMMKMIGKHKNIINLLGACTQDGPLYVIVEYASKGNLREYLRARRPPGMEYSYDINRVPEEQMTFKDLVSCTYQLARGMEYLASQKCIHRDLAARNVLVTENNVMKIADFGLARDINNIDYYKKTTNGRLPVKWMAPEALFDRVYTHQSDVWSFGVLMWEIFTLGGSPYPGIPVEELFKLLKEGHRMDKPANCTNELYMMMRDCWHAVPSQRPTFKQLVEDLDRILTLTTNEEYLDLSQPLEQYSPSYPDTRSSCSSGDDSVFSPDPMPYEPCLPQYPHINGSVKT

SMILES | IC50 [nM]
C=CC(=O)N1C[C@@H](n2nc(C#Cc3cc4ncn(C5CC5)c4cc3F)c3c(N)nccc32)C[C@@H]1C(F)F [Example 182, 1-((2R,4S)-4-(4-amino-3-((1-cyclopropyl-6-fluoro-1H-benzo[d]imidazol-5-yl)ethynyl)-1H-pyrazolo[4,3-c]pyridin-1-yl)-2-(difluoromethyl)pyrrolidin-1-yl)prop-2-en-1-one] | ≤ 100
C=CC(=O)N1C[C@@H](n2nc(C#Cc3cc4ncn(CC)c4cc3Cl)c3c(N)nccc32)C[C@@H]1C(F)F [Example 183, 1-((2R,4S)-4-(4-amino-3-((6-chloro-1-ethyl-1H-benzo[d]imidazol-5-yl)ethynyl)-1H-pyrazolo[4,3-c]pyridin-1-yl)-2-(difluoromethyl)pyrrolidin-1-yl)prop-2-en-1-one] | ≤ 100
C=CC(=O)N1C[C@@H](n2nc(C#Cc3cc4ncn(C)c4cc3F)c3c(N)ncnc32)C[C@@H]1CF [Example 184, 1-[(2R,4S)-4-{4-Amino-3-[2-(6-fluoro-1-methyl-1,3-benzodiazol-5-yl)ethynyl]pyrazolo[3,4-d]pyrimidin-1-yl}-2-(fluoromethyl)pyrrolidin-1-yl]prop-2-en-1-one] | ≤ 100
C=CC(=O)N1C[C@@H](n2nc(C#Cc3cc4ncn(C)c4cc3F)c3c(N)nccc32)C[C@@H]1CF [Example 185, 1-[(2R,4S)-4-{4-Amino-3-[2-(6-fluoro-1-methyl-1,3-benzodiazol-5-yl)ethynyl]pyrazolo[4,3-c]pyridin-1-yl}-2-(fluoromethyl)pyrrolidin-1-yl]prop-2-en-1-one] | ≤ 100
C=CC(=O)N1C[C@@H](n2cc(C#Cc3cc4ncn(C)c4cc3F)c3c(N)ncnc32)C[C@@H]1CF [Example 186, 1-((2R,4S)-4-(4-Amino-5-((6-fluoro-1-methyl-1H-benzo[d]imidazol-5-yl)ethynyl)-7H-pyrrolo[2,3-d]pyrimidin-7-yl)-2-(fluoromethyl)pyrrolidin-1-yl)prop-2-en-1-one] | ≤ 100
C=CC(=O)N1C[C@@H](n2nc(C#Cc3cc4ncn(C5CC5)c4cc3Cl)c3c(N)ncnc32)C[C@@H]1CC#N [Example 187, 2-[(2R,4S)-4-{4-Amino-3-[2-(6-chloro-1-cyclopropyl-1,3-benzodiazol-5-yl)ethynyl]pyrazolo[3,4-d]pyrimidin-1-yl}-1-(prop-2-enoyl)pyrrolidin-2-yl]acetonitrile] | ≤ 100
C=CC(=O)N1C[C@@H](n2nc(C#Cc3ccc4c(c3)ncn4C3CC3)c3c(N)ncnc32)C[C@@H]1CC#N [Example 188, 2-[(2R,4S)-4-{4-Amino-3-[2-(1-cyclopropyl-1,3-benzodiazol-5-yl)ethynyl]pyrazolo[3,4-d]pyrimidin-1-yl}-1-(prop-2-enoyl)pyrrolidin-2-yl]acetonitrile] | ≤ 100
C=CC(=O)N1CC[C@H](n2nc(C#Cc3cc4nc(C)n(C)c4c(F)c3F)c3c(N)ncnc32)C1 [Example 189, 1-[(3S)-3-{4-Amino-3-[2-(6,7-difluoro-1,2-dimethyl-1,3-benzodiazol-5-yl)ethynyl]pyrazolo[3,4-d]pyrimidin-1-yl}pyrrolidin-1-yl]prop-2-en-1-one] | ≤ 100
C=CC(=O)N1CC[C@H](n2nc(C#Cc3cc4ncn(C5CC5)c4c(F)c3Cl)c3c(N)ncnc32)C1 [Example 190, 1-[(3S)-3-{4-Amino-3-[2-(6-chloro-1-cyclopropyl-7-fluoro-1,3-benzodiazol-5-yl)ethynyl]pyrazolo[3,4-d]pyrimidin-1-yl}pyrrolidin-1-yl]prop-2-en-1-one] | ≤ 100
C=CC(=O)N1CC[C@H](n2nc(C#Cc3cc4ncn(C5CC5)c4cc3Cl)c3c(N)ncnc32)C1 [Example 191, 1-[(3S)-3-{4-Amino-3-[2-(6-chloro-1-cyclopropyl-1,3-benzodiazol-5-yl)ethynyl]pyrazolo[3,4-d]pyrimidin-1-yl}pyrrolidin-1-yl]prop-2-en-1-one] | ≤ 100
C=CC(=O)N1CC[C@H](n2nc(C#Cc3cc4nc(C)n(C)c4cc3F)c3c(N)ncnc32)C1 [Example 192, 1-[(3S)-3-{4-Amino-3-[2-(6-fluoro-1,2-dimethyl-1,3-benzodiazol-5-yl)ethynyl]pyrazolo[3,4-d]pyrimidin-1-yl}pyrrolidin-1-yl]prop-2-en-1-one] | ≤ 100
C=CC(=O)N1CC[C@H](n2nc(C#Cc3ccc4c(c3)ncn4C3CC3)c3c(N)ncnc32)C1 [Example 193, 1-[(3S)-3-{4-Amino-3-[2-(1-cyclopropyl-1,3-benzodiazol-5-yl)ethynyl]pyrazolo[3,4-d]pyrimidin-1-yl}pyrrolidin-1-yl]prop-2-en-1-one] | ≤ 100
C=CC(=O)N1CC[C@H](n2nc(C#Cc3cc4ncn(C5CC5)c4c(F)c3F)c3c(N)ncnc32)C1 [Example 194, 1-[(3S)-3-{4-Amino-3-[2-(1-cyclopropyl-6,7-difluoro-1,3-benzodiazol-5-yl)ethynyl]pyrazolo[3,4-d]pyrimidin-1-yl}pyrrolidin-1-yl]prop-2-en-1-one] | ≤ 100
C=CC(=O)N1CC[C@H](n2nc(C#Cc3c(F)cc4c(ncn4C4CC4)c3F)c3c(N)ncnc32)C1 [Example 195, 1-[(3S)-3-{4-Amino-3-[2-(1-cyclopropyl-4,6-difluoro-1,3-benzodiazol-5-yl)ethynyl]pyrazolo[3,4-d]pyrimidin-1-yl}pyrrolidin-1-yl]prop-2-en-1-one] | ≤ 100
C=CC(=O)N1C[C@@H](n2nc(C#Cc3cc4ncn(C5CC5)c4cc3F)c3c(N)ncnc32)C[C@@H]1COC(F)F [Example 196, 1-((2R,4S)-4-(4-Amino-3-((1-cyclopropyl-6-fluoro-1H-benzo[d]imidazol-5-yl)ethynyl)-1H-pyrazolo[3,4-d]pyrimidin-1-yl)-2-((difluoromethoxy)methyl)pyrrolidin-1-yl)prop-2-en-1-one] | ≤ 100
C=CC(=O)N1C[C@@H](n2nc(C#Cc3cc4ncn(C5CC5)c4cc3F)c3c(N)ncnc32)C[C@@H]1CF [Example 197, 1-((2R,4S)-4-(4-Amino-3-((1-cyclopropyl-6-fluoro-1H-benzo[d]imidazol-5-yl)ethynyl)-1H-pyrazolo[3,4-d]pyrimidin-1-yl)-2-(fluoromethyl)pyrrolidin-1-yl)prop-2-en-1-one] | ≤ 100
C=CC(=O)N1C[C@@H](c2nc(C#Cc3cc4ncn(C5CC5)c4cc3F)c3c(N)ncnn23)C[C@@H]1COC [Example 199, 1-[(2R,4S)-4-{4-Amino-5-[2-(1-cyclopropyl-6-fluoro-1,3-benzodiazol-5-yl)ethynyl]imidazo[4,3-f][1,2,4]triazin-7-yl}-2-(methoxymethyl)pyrrolidin-1-yl]prop-2-en-1-one] | ≤ 100
C=CC(=O)N1CC[C@H](c2nc(C#Cc3cc4ncn(C5CC5)c4cc3F)c3c(N)nccn23)C1 [Example 201, 1-[(3 S)-3-{8-Amino-1-[2-(1-cyclopropyl-6-fluoro-1,3-benzodiazol-5-yl)ethynyl]imidazo[1,5-a]pyrazin-3-yl}pyrrolidin-1-yl]prop-2-en-1-one] | 100 to 1000
C=CC(=O)N1C[C@@H](c2nc(C#Cc3cc4ncn(C5CC5)c4cc3F)c3c(N)nccn23)C[C@@H]1COC [Example 203, 1-[(2R,4S)-4-{8-Amino-1-[2-(1-cyclopropyl-6-fluoro-1,3-benzodiazol-5-yl)ethynyl]imidazo[1,5-a]pyrazin-3-yl}-2-(methoxymethyl)pyrrolidin-1-yl]prop-2-en-1-one] | ≤ 100

Same assay, conditions: poly[Glu:Tyr] (4:1) 0.2 mg/ml, ATP 100 microM, 2 hr room temperature, given as numeric bound

SMILES | IC50 [nM]
C=CC(=O)N1C[C@H](c2nc(C#Cc3cc4ncn(C5CC5)c4cc3F)c3c(N)ncnn23)C[C@@H]1COC [Example 198, 1-[(2R,4R)-4-{4-Amino-5-[2-(1-cyclopropyl-6-fluoro-1,3-benzodiazol-5-yl)ethynyl]imidazo[4,3-f][1,2,4]triazin-7-yl}-2-(methoxymethyl)pyrrolidin-1-yl]prop-2-en-1-one] | > 500
C=CC(=O)N1CC[C@H](c2nc(C#Cc3cc4ncn(C5CC5)c4cc3F)c3c(N)ncnn23)C1 [Example 200, (S)-1-(3-(4-Amino-5-((1-cyclopropyl-6-fluoro-1H-benzo[d]imidazol-5-yl)ethynyl)imidazo[5,1-f][1,2,4]triazin-7-yl)pyrrolidin-1-yl)prop-2-en-1-one] | > 500
C=CC(=O)N1C[C@H](c2nc(C#Cc3cc4ncn(C5CC5)c4cc3F)c3c(N)nccn23)C[C@@H]1COC [Example 202, 1-[(2R,4R)-4-{8-Amino-1-[2-(1-cyclopropyl-6-fluoro-1,3-benzodiazol-5-yl)ethynyl]imidazo[1,5-a]pyrazin-3-yl}-2-(methoxymethyl)pyrrolidin-1-yl]prop-2-en-1-one] | > 500
